Assay results: US20090098072A1, “ANTIOXIDANTS” (priority 2006, published 2009)

Test: Photoconversion test (absorption at 300 nm after solar simulator irradiation)
Format: physicochemical
Method: A 4% solution of the substance in isopropyl myristate is prepared. In each case, 40 μl of the solution are applied to the roughened surface of 2 acrylic glass plates (7.2×2.5 cm). One plate is subsequently irradiated in a solar simulator (Atlas CPS+) for 1 h 50 min with cooling. The sample is subsequently transferred into a 50 ml measuring cylinder and covered with 40 ml of isopropanol for extraction in the ultrasound bath. The sample volume is subsequently made up to precisely 50 ml, and the absorption is measured at 300 nm. An unirradiated batch treated analogously serves as comparison. The absorption can be increased by 22% from 0.094 (dark batch) to 0.115 by the irradiation step.

absorption at 300 nm, unirradiated (dark batch) (4% solution in isopropyl myristate, 40 μl on acrylic glass plate, extracted with isopropanol to 50 ml, not irradiated): 0.094
absorption at 300 nm after irradiation (4% solution in isopropyl myristate, 40 μl on acrylic glass plate, solar simulator (Atlas CPS+) 1 h 50 min, extracted with isopropanol to 50 ml): 0.115
increase of absorption at 300 nm by the irradiation step (irradiated 1 h 50 min vs dark batch): 22%
SMILES: Cc1ccc(CC2C(=O)C3(C)CCC2C3(C)C)cc1 (stereo not drawn) [Example 1, 1,7,7-trimethyl-3-(4-methylbenzyl)-bicyclo-[2.2.1]heptan-2-one]
